d = 2'-deoxy (DNA); m = 2'-O-methyl
Key:
[1] = mammals; cited from earlier work
[2] = tested on: DNA MeTase protein; assay: DNA MeTase protein levels by Western blotting in A549 cells; type: cell-based, human; conditions: 20, 40 or 80 nM with lipofectin, 4 h on day 0 and day 1, harvest day 2
From the text: (§1) MG88 was next tested for an ability to inhibit DNA MeTase mRNA in two human neoplastic cells, A549 (human non-small cell lung carcinoma cells) and T24 (human bladder cancer cells). […] MG208 was modified as follows: A equals 2′-deoxyriboadenosine; C equals 2′-deoxyribocytidine; G equals 2′-deoxyriboguanosine; T equals 2′-deoxyribothymidine; A equals riboadenosine; U equals uridine; C equals ribocytidine; and G equals riboguanosine. The underlined bases were 2′-methoxyribose substituted nucleotides. Non-underlined bases indicate deoxyribose nucleosides. The backbone of MG208 consisted of a phosphorothioate linkage between adjoining nucleotides.
The MG88 and MG208 oligonucleotides were diluted to the desired concentration from a 0.1 mM stock solution in the transfection media. Cells were exposed to oligonucleotide plus lipofectin (or lipofectin only) for four hours on day 0 and four hours on day 1 (after each four hour treatment, cells were returned to complete media). On day 2 (i.e., 48 hours after the first treatment on day 0), cells were harvested, whole cell lysates were prepared, and DNA MeTase protein levels were analyzed by Western blotting analysis with a DNA MeTase-specific rabbit polyclonal antibody (generated according to standard techniques of a glutathione S -transferase fusion protein containing the first 10 kDa amino terminus from DNA methyltransferase protein). […]

[3] = tested on: p16^ink4A protein; assay: p16^ink4A protein by immunoprecipitation and Western blotting in T24 cells; type: cell-based, human; conditions: for induction of expression of p16^ink4A protein: 40 nM or 75 nM, 4 h each day up to 10 days
From the text: The cyclin-dependent kinase inhibitor (CDKI) p16^ink4A regulates the transition from G1 to S-phases of the cell cycle (Serrano et al. (1993) Nature 366: 704-707). Inactivation of p16^ink4A is one of the most frequently observed abnormalities in human cancer (Serrano et al., supra). Transcriptional inactivation and associated hypermethylation of the p16^ink4A promote region have also been observed in virtually all types of cancer (Gonzales-Zulueta et al. (1995) Cancer Res. 55: 4531-4535; Merlo et al. (1995) Nat. Med. 7: 686-692; Costello et al. (1996) Cancer Res. 56: 2405-2410; Lo et al., Cancer Res. 56: 2721-2725). To investigate the effect of specifically reducing cellular DNA MeTase levels on the expression and methylation status of a silenced p16^ink4A gene, T24 human bladder cancer cells that contain a hypermethylated and silenced p16^ink4A gene were transfected with 40 nM or 75 nM MG88 or control oligonucleotide MG208 with 6.25 μg/ml lipofectin for four hours each day for up to 10 consecutive days. On days 3, 5, 8, and 10, p16^ink4A protein levels were then analyzed by immunoprecipitation followed by Western blotting analysis with a p16^ink4A protein-specific antibody (PharMingen). HeLa cells were used as a positive (+) control for p16^ink4A protein expression.
(§2) Next, to determine whether de novo methylation and silencing of the re-expressed p16^ink4A gene occurred when DNA MeTase returned to normal levels, T24 cells were transfected for 10 consecutive days with either 40 or 75 nM or MG88 or MG208. […] Cell lysates of the T24 cells transfected for ten days were analyzed by Western blotting analysis for expression of DNA MeTase protein,p16^ink4A protein, and actin protein (as a control for equal loading) 3, 5, and 7 days after MG88 transfection.

[4] = tested on: p16^ink4A promoter; assay: Methylation specific PCR and bisulfite genomic sequencing of the p16^ink4A promoter in T24 cells; type: cell-based, human; conditions: for demethylation of the p16^ink4A promoter region (MSP): treated 3, 5, 9 or 10 days
Protocol: To identify changes in the methylation status of the p16^ink4A promoter induced by MG88 treatment, methylation specific PCR (MSP) and bisulfite genomic sequencing was performed as previously described ([…] et al. (1994) Nat. Gen. 8: 27-32; Frommer et al. (1991) Proc. Nat. Acad. Sci. USA 89: […]). […] Briefly, the Oncor p16 detection system was used (commercially available from Oncor, Gaithersburg, Md.). PCR was performed in a total volume of 25 μl under the following conditions: 100 ng bisulfate-treated DNA (Oncor),10 mM Tris-HCl, pH 8.3, […], 1.5 mM MgCl2, 250 μM dNTPs, 80 ng of each of the following primers ([NT] sense (SEQ ID NO: 79) and [NT] antisense (SEQ ID NO: 80)) and 1 unit of AmpliTaq Gold (Perkin-Elmer). The denaturation cycle was 95° C. for 12 min followed by 35 cycles at 95° C. for 45 seconds, 60° C. for 45 seconds, and 72° C. for 60 seconds, and an elongation cycle of 72° C. for 10 minutes. the PCR product (5 μl) was analyzed on a 2% agarose gel. The unmethylated (U) and demethylated (D) primers (commercially available from Oncor) were used at the same conditions as the specific primers.

[5] = tested on: T24 cells; assay: T24 cell proliferation during and after treatment (cell counting); type: cell-based, human; conditions: for cell proliferation during treatment: days 0-5, relative to lipofectin
From the text: To study the effect of specific inhibition of DNA MeTase on cell growth, cellular proliferation rates were monitored both during the treatment and post treatment periods to determine the duration of the effect. […] During and following treatment, cells were counted. […] To determine whether the transient re-expression of p16^ink4A and growth-inhibitory effects induced by short term treatment with MG88 were due to the expansion of a less affected (less demethylated) population of cells within the treated population, or to rapid inactivation of p16^ink4A after MG88 withdrawal, single cell clones were isolated after treatment. Several MG88 clones were, in fact, p16^ink4A negative, confirming that the MG88 treatment produced a mixed population of p16^ink4A positive and negative cells.

[6] = tested on: DNA MeTase protein; assay: DNA MeTase protein levels by Western blotting in T24 cells; type: cell-based, human; conditions: for reduction in DNA MeTase protein levels: 20, 40 or 80 nM with lipofectin, 4 h on day 0 and day 1, harvest day 2
From the text: as §1
The MG88 and MG208 oligonucleotides were diluted to the desired concentration from a 0.1 mM stock solution in the transfection media. Cells were exposed to oligonucleotide plus lipofectin (or lipofectin only) for four hours on day 0 and four hours on day 1 (after each four hour treatment, cells were returned to complete media). On day 2 (i.e., 48 hours after the first treatment on day 0), cells were harvested, whole cell lysates were prepared, and DNA MeTase protein levels were analyzed by Western blotting analysis with a DNA MeTase-specific rabbit polyclonal antibody (generated according to standard techniques of a glutathione S -transferase fusion protein containing the first 10 kDa amino terminus from DNA methyltransferase protein). […] Equal loading of all lanes was confirmed by blotting for α-actin protein levels with an actin-specific rabbit polyclonal antibody (commercially available from Santa Cruz Biotech., Santa Cruz, Calif.).
as §2

[7] = tested on: p21^WAF1; assay: p21^WAF1 protein levels by Western blotting in T24 cells; type: cell-based, human; conditions: for p21^WAF1 protein level: 40 nM or 75 nM, 24 or 48 hours
Protocol: Another member of the cyclin-dependent kinase inhibitor (CDKI) family, p21^WAF1, inhibits a wide range of cyclin/CDK complexes involved in G1 and S phase progression (Tam et al. (1994) Cancer Res. 54: 5816-5820; Baghdassarian and French (1996) Hematol. Cell Ther. 88: 313-323; Gotz et al. (1996) Oncogene 13: 391-398). […] To do this, DNA MeTase, p21^WAF1, and α-actin protein levels were measured by Western blotting analysis in T24 cells that had been treated for either 24 hours (i.e., one 4 hour transfection time) or 48 hours (i.e., two […] transfections 24 hours apart) with either 40 nM or 75 nM of either MG88 or MG208.
T24 cells were also treated for 24 hours (i.e., four hour transfection) with lipofectin only, or lipofectin plus 20, 40, or 80 nM of MG88 or MG208. After treatment, cell lysates were prepared and analyzed by Western blotting analysis with α-actin-specific antibody or p21-specific antibody.

[8] = tested on: thymidylate synthase; conditions: T24 cells; 25 or 50 nM, 72 hours
From the text: After treatment, the cells were lysed and analyzed by Western blotting analysis for thymidylate synthase protein levels using a thymidylase synthase specific antibody (commercially available from Chemicon Int., Temecula, Calif.).

[9] = biological target: human DNA MeTase mRNA; assay: Antisense inhibition of DNA MeTase mRNA (screen of phosphorothioate oligonucleotides); type: cell-based
From the text: As shown in FIG. 1 the two […] regions were identified to be highly sensitive to antisense inhibition were targeted by MG88 having the sequence [NT] ID NO:1) (this oligonucleotide is targeted to the […] 5'UTR at nucleotides 532 to 513) and MG98 having the sequence [NT] ID NO:2) (this oligonucleotide is targeted to the […] 3'UTR at nucleotides 5218 to 5199). These oligonucleotides were chemically modified as follows: A equals 2'-deoxyriboadenosine; C equals 2'-deoxyribocytidine; G equals 2'-deoxyriboguanosine; T equals 2'-deoxyribothymidine; A equals riboadenosine; U equals uridine; C equals ribocytidine; and G equals riboguanosine. The underlined bases were 2'-methoxyribose substituted nucleotides. Non-underlined bases indicate deoxyribose nucleosides. The backbone of each oligonucleotide consisted of a phosphorothioate linkage between adjoining nucleotides.

[10] = tested on: p16 tumor suppressor; assay: Reactivation of p16 expression in T24 cells, oligonucleotide and/or 5-aza-dC (IP/Western, densitometry); type: cell-based, human; conditions: densitometry of FIG. 14 Western, 40 nM oligonucleotide and/or 0.1 μM 5-aza-dC
Protocol: For this purpose, one day before transfection, T24 cells (ATCC No. HTB-4) were plated onto 10 cm plates at 4×10^5 cells/dish. At the time of transfection, cells were washed with phosphate buffered saline (PBS) and 5 ml of optimem media (Gibco-BRL) containing 6.25 μl/ml lipofectin transfection reagent (Gibco-BRL) was added. […] These oligonucleotides were chemically modified as follows: A equals 2'-deoxyriboadenosine; C equals 2'-deoxyribocytidine; G equals 2'-deoxyriboguanosine; T equals 2'-deoxyribothymidine; Aequals riboadenosine; U equals uridine; C equals ribocytidine; and G equals riboguanosine. The underlined bases were 2'-methoxyribose substituted nucleotides. Non-underlined bases indicate deoxyribose nucleosides. The backbone of each oligonucleotide consisted of a phosphorothioate linkage between adjoining nucleotides. The oligonucleotides were diluted to the desired concentration from a 0.1 mM stock solution in the transfection media. After a four-hour incubation at 37° C. in a 5% CO2 incubator, the plates were washed with PBS and 10 ml of fresh cell culture media was added. Following an additional two-hour incubation at 37° C., freshly prepared 5-aza-2'-deoxycytidine was added to the tissue culture medium. Cells were transfected for a total of three days and split every other day to ensure optimal transfection conditions. At the indicated time points, cells were harvested by trypsinization and pelleted by centrifugation at 1100 rpm and 4° C. for five minutes. The cell pellet was resuspended in PBS and counted on a Coulter Particle Counter to determine the total cell number. Following a second centrifugation, the PBS was aspirated from the cell pellet and the pellet was frozen at 70° C. […] The lysed cells were incubated on ice for 10 minutes and cell particulate matter was removed by centrifugation at 10,000 rpm for 10 minutes at 4° C. The protein concentration for each sample was determined using the Bio Rad Protein Assay and 600 μg of protein was used for each immunoprecipitation. […]

[11] = tested on: Colo 205 human colon cancer cells; assay: Colo 205 tumor growth in nude mice; type: in vivo, BALB/c nude mice; conditions: i.v. daily for seven days; 0.5 mg/kg MG98 and/or 0.1 mg/kg 5-aza-dC
Protocol: Eight to ten week old female BALB/c nude mice (Taconic Labs, Great Barrington, N.Y.) were injected subcutaneously in the flank area with 2×10^6 preconditioned Colo 205 human colon cancer cells (ATCC No. CCL-222). Preconditioning of these cells was done by a minimum of three consecutive tumor transplantations in the same strain of nude mice. Subsequently, tumor fragments of approximately 30 mgs were excised and implanted subcutaneously in mice, in the left flank area under Forene anesthesia (Abbott Labs., Geneva, Switzerland). […] Tumor volume was calculated according to standard methods every second day post infusion (see methods, e.g., in Meyer et al. (1989) Int. J. Cancer 43: 851-856).

[12] = tested on: p21^WAF1 mRNA; assay: RNase protection assay for p21 mRNA in T24 cells; type: cell-based, human; conditions: 40 nM, 24 or 48 hours
Protocol: Next, to determine if p21^WAF1 was induced at the transcriptional level, RNase protection assay were performed on cells treated with 40 nM of either MG88 or MG208 for either 24 or 48 hours. Total cellular RNA was isolated from the cells and analysed for p21 mRNA, p27 mRNA, and p18 mRNA using the human cell cycle-2 (hcc-2) multiprobe RNase protection kit commercially available from PharMingen, San Diego, Calif.). RNA loading was determined to be equal using the signals from two housekeeping genes, L32 and GAPDH.

[13] = tested on: pRb; assay: Western blotting for phosphorylated pRb in T24 cells; type: cell-based, human; conditions: T24 cells reactivated to express p16^ink4A after transfection
[14] = after 10 day treatment with 40 nM

## Nc1ncn([C@@H]2O[C@H](CO)[C@@H](O)[C@H]2O)c(=O)n1 [5-azaC, 5-aza-cytidine]
[1]
  toxicity of threshold concentrations necessary to inhibit DNA methyltransferase activity: toxic to mammals

## 5′-AACGAT CAG GAC CCT TGUCC-3′ (DNA AACGATCAGGACCCTTGUCC; sugars from the 5' end m4 d12 m4, all phosphorothioate, methylation of C not given here) [MG208, mismatch control oligonucleotide, reference compound]
[2]
  reduction in DNA MeTase protein levels: not
[3]
  induction of expression of p16^ink4A protein: not detected
[4]; T24 cells, days 3 and 5 of treatment
  p16^ink4A methylation status (bisulfite sequencing): no effect on p16^ink4A methylation status
[4]; T24 cells
  demethylation of the p16^ink4A promoter region (MSP): no effect on methylation of the p16^ink4A gene
[5]; 75 nM
  cell proliferation during treatment: only minimal growth inhibition
[6]
  reduction in DNA MeTase protein levels: not
[7]
  p21^WAF1 protein level: neither lipofectin nor MG208 had an effect

## 5′ GUCUTAAGCTCAACATUCUA 3′ [MG2606, reference compound]
[8]
  thymidylate synthase protein level compared to lipofectin only: not

## 5′-UUCATG TCA GCC AAG GCC AC-3′ [MG98]
[9]
  IC50: 45 nM
[10]
  p16 expression, Percentage of HeLa Cell Control: 4
[11]
  tumor volume: showed tumor volume increase

## 5′-AAGCAT GAG CAC CGT TCUCC-3′ [MG88]
[2]
  reduction in DNA MeTase protein levels: dose-dependent reduction in DNA MeTase protein levels
[9]
  IC50: 40 nM
[3]
  induction of expression of p16^ink4A protein: detected after 5 days of treatment
[3]; [14]
  p16^ink4A protein level post-treatment: barely detectable at day 7 post-treatment
[4]; T24 cells, day 5 of treatment, 15 sites in all
  demethylated CpG sites of p16^ink4A promoter (bisulfite sequencing): 15 CpG sites
[4]; T24 cells, three days after cessation of treatment
  re-methylated sites of p16^ink4A promoter: 13 of 15
[4]; T24 cells
  demethylation of the p16^ink4A promoter region (MSP): occurred as early as day 3 of MG88 treatment
[4]; thirty days after a five day treatment (75 nM)
  methylation of p16^ink4A promoter in positive clone C4-5: completely non methylated at all CpG sites evaluated
[5]; 75 nM, 10 consecutive days
  antiproliferative and cell death effect: significant antiproliferative and cell death inducing effect
[5]; 75 nM
  cell proliferation during treatment: dramatically inhibited cell proliferation
[5]; after 5 day treatment with 75 nM
  persistence of inhibition of cell proliferation: approximately one week post-treatment
[6]
  reduction in DNA MeTase protein levels: dose-dependent reduction in DNA MeTase protein levels
[6]; [14]
  return of DNA MeTase protein to control levels post-treatment: 5 to 7 days
[12]
  p21^WAF1 mRNA: no increase in p21^WAF1 mRNA
[13]
  phosphorylated forms of pRb: decrease in the amount of phosphorylated forms of pRb
[7]
  p21^WAF1 protein level: increased directly with the reduction in DNA MeTase
[7]; 20, 40 or 80 nM, 24 hours
  p21^WAF1 protein induction, dose response: induced p21^WAF1 in a dose dependent fashion

## Nc1ncn([C@H]2C[C@H](O)[C@@H](CO)O2)c(=O)n1 [5-aza-dC, 5-aza-2′-deoxycytidine]
[10]
  p16 expression, Percentage of HeLa Cell Control: 11
[1]
  toxicity of threshold concentrations necessary to inhibit DNA methyltransferase activity: toxic to mammals
[11]
  tumor volume: showed less tumor volume increase

## 5′-UUAATG TAA CCT AAG GUCAA-3′ (DNA UUAATGTAACCTAAGGUCAA; sugars from the 5' end m4 d12 m4, all phosphorothioate, methylation of C not given here) [MG207, negative control oligonucleotide]
[10]
  p16 expression, Percentage of HeLa Cell Control: 1

## 5′ UUCATAACCTCAGCATUGUC 3′ [MG2605]
[8]
  thymidylate synthase protein level compared to lipofectin only: diminished levels of thymidylate synthase protein
